For 1 compound, IC50 results are on record in BindingDB's records for patent US9701669 (Merck Sharp & Dohme Corp, 2017).

In this assay the target is T1, Proteinase-activated receptor 1 (Homo sapiens, UniProt P25116).
T1 sequence (P25116 whole entry): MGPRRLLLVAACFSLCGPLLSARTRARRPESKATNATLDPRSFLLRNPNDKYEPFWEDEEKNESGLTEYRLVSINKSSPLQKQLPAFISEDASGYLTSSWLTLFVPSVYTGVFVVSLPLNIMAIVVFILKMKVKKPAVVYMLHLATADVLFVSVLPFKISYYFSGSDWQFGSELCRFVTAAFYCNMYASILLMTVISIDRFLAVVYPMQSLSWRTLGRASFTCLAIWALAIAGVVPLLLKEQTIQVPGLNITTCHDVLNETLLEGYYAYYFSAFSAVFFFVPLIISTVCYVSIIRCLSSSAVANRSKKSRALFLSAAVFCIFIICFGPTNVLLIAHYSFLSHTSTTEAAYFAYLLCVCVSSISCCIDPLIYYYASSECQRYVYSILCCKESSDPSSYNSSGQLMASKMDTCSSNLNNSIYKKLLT
The assay can be described thus: PAR-1 FLIPR Assay. Here is the method:
Media was then removed from the cells, incubated with 33 ul of Calcium-5 dye in assay buffer (Hank's buffer containing 20 mM HEPES, 0.04% Chaps and 2.5 mM Probenecid) for 60 minutes at 37° C. 2 uL of varying concentrations of compound in 40% DMSO in assay buffer (final DMSO concentration is 2.3%) were then added to the cells and incubated at 25° C. for 30 minutes. […] The range of peptide was from 1.5-3 μM. The final volume was 40 uL/well, with 2% DMSO. […] The data were analyzed by taking the peak signal over a portion of the range of the 60 scans and dividing this signal by the minimum signal for that same range.

A word on the IC50: it is the concentration at which inhibition is half-maximal. A lower IC50 goes with greater potency in that assay. Consider `Cc1nc(/C=C/[C@@H]2[C@@H]3[C@@H](C)OC(=O)[C@]3(C(N)=O)CC(F)(F)[C@H]2C)ccc1-c1ccccc1C#N` [US9701669, 4], for which the IC50 came to 6.92 nM.
